Like-named read-outs stand apart in the source and are kept apart here.
Assays:
[1] = Blood-brain penetration test in rats; format: in vivo, Male SD rats; details: for Kp at 0.5 h / Kp at 5 min / concentration at 0.5 h: male, SD, rat; for Kp at 0.5 h / Kp at 5 min: brain/plasma; for Kp at 5 min: IV 2 mg/kg, 5 min after administration; for concentration at 0.5 h: 0.5 h after oral administration (PO, 10 mg/kg)
Experimental: Male SD rats were divided into groups of three animals each, which were administered the compounds to be tested either by single oral gavage (PO, 10 mg/kg) or by single intravenous injection (IV, 2 mg/kg). Animals were fasted overnight prior to dosing, beginning 10 hours before administration and continuing until 4 hours after dosing. Rats were sacrificed at 0.5 hours after PO administration (or 5 min after IV administration). Blood and brain tissues were collected. The samples were centrifuged at 4000 rpm for 5 min at 4 °C, and plasma was transferred to centrifuge tubes and stored at -80°C until analysis. Plasma samples were processed by protein precipitation extraction, and the extracts were analyzed by LC/MS/MS.

JAK1-JH2 = target: T1, JAK1-JH2 (Homo sapiens, UniProt P23458); assay: Enzymatic activity (IC50) assay against JAK1-JH2 (fluorescence polarisation, JH2 probe 1); format: binding
T1 construct: Enzymatic activity(IC50) assay of compounds against TYK2-JH2 and JAK1-JH2
T1 sequence (P23458 583-855 limits assumed): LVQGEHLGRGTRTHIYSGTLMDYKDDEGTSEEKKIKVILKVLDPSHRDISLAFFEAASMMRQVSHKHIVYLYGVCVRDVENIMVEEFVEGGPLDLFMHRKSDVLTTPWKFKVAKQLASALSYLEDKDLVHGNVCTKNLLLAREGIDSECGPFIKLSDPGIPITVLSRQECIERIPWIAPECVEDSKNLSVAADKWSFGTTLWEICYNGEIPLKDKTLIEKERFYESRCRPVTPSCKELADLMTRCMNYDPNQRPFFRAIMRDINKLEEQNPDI
Experimental: (§1) Using an Echo liquid handler, 50 nL of the compound to be tested was transferred into a 384-well reaction plate, in duplicate wells for each compound. The plate was subjected to centrifugation at 1000 rpm for 1 min and the final DMSO concentration was 0.5%. Subsequently, 5 µL of TYK2 (or JAK1) was added to the plate, centrifuged at 1000 rpm for 1 min, and incubated at 25 °C for 10 min. Then, 5 µL of JH2 probe 1 was added to the plate, centrifuged at 1000 rpm for 1 min, and incubation at 25 °C for 60 min. FP 520/48 signals were measured using a BMG high-throughput multifunctional plate reader. Data from the TYK2-JH2 assay were analyzed using GraphPad Prism 8 software. […] After calculating inhibition rates, IC50 values (half-maximal inhibitory concentrations) of the control compounds and the compounds to be tested were determined using nonlinear regression fitting of software. [formula] • Datapositive control: mean value of positive control wells • Datanegative control: mean value of negative control wells

TYK2-JH2 = target: T2, TYK2-JH2 (Homo sapiens, UniProt P29597); assay: Enzymatic activity (IC50) assay against TYK2-JH2 (fluorescence polarisation, JH2 probe 1); format: binding
T2 construct: Enzymatic activity(IC50) assay of compounds against TYK2-JH2 and JAK1-JH2
T2 sequence (P29597 589-875 limits assumed): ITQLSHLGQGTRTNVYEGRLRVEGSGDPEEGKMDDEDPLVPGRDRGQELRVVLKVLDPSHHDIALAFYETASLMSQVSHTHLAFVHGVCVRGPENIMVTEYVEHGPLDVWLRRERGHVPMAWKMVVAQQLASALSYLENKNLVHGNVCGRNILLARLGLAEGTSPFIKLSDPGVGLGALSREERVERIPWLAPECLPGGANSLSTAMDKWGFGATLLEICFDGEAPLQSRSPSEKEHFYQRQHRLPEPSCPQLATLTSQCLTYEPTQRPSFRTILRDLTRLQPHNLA
Experimental: as §1

[2] = Pharmacokinetic experiment in rats; format: in vivo, Male SD rats; details: for Vd: plasma, iv, 2 mg/kg
Experimental: Male SD rats were divided into groups of three animals each, which were administered the compound of Example 2 by intravenous injection (2 mg/kg), administered the compound of Example 2 by single oral gavage (10 mg/kg), and administered a control compound by single oral gavage (10 mg/kg), respectively. Animals were fasted overnight prior to dosing, beginning 10 hours before administration and continuing until 4 hours after dosing. For the intravenous group, blood samples were collected at 0.0833, 0.25, 0.5, 1, 2, 4, 6, 8, and 24 h post-dose. For the oral administration groups, blood samples were collected at 0.25, 0.5, 1, 2, 4, 6, 8, and 24 h post-dose. Blood samples (0.3 mL) were collected from the retro-orbital venous plexus under isoflurane anesthesia into heparinized tubes. The samples were centrifuged at 4000 rpm for 5 min at 4 °C, and plasma was transferred to centrifuge tubes and stored at -80°C until analysis. Plasma samples were processed by protein precipitation extraction, and the extracts were analyzed by LC/MS/MS. Pharmacokinetic results are shown in Tables 2 and 3: Table 2: Pharmacokinetic parameters of the compound in Example 2 in rat plasma after intravenous administration

[3] = read-out: brain/blood concentration ratio
[4] = male, SD, rat plasma, intravenous injection 2 mg/kg
[5] = male, SD, rat plasma, single oral gavage 10 mg/kg

With [2H]C([2H])([2H])NC(=O)c1nnc(NC(=O)C2CC2)cc1Nc1cccc(-c2ncn(C)n2)c1OC [Deucravacitinib, reference compound] the “brain penetration (in words)” value [1] was “very low brain penetration” and the Kp at 0.5 h ([1]; PO 10 mg/kg, 0.5 hours after administration, read-out: brain/blood concentration ratio) was 0.032.

In the case of CNc1cc2nn3c(cnc13)C(=O)O[C@H](C)COCc1ccc(OC)c(c1)N2 [Example 1, (7R,E)-3^6-methoxy-7-methyl-1^8-(methylamino)-5,8-dioxa-2-aza-1(6,3)-imidazo[1,2-b]pyridazin-3(1,3)-benzocyclononan-9-one], the Kp at 5 min [1, 3] is reported as 3.15, the IC50 (JAK1-JH2) is reported as greater than 5000 nM and the IC50 (TYK2-JH2) is reported as less than 5 nM.

In the case of CNc1cc2nc3c(cnn13)C(=O)OC(C)COCc1ccc(OC)c(c1)N2 [Example 2, (R,1^3E,1^4E)-3^6-methoxy-7-methyl-1^7-(methylamino)-5,8-dioxa-2-aza-1(5,3)-pyrazolo[1,5-a]pyrimidin-3(1,3)-benzheterocyclononan-9-one], the “brain penetration (in words)” value [1] is reported as “remarkably high brain penetration”, the brain/blood concentration ratio ([1]; PO 10 mg/kg, 0.5 hours after administration) is reported as 508% and the concentration at 0.5 h ([1]; brain, read-out: concentration in brain tissue) is reported as 2620 ng/mL. For the same compound, the Kp at 0.5 h ([1]; 10 mg/kg, 0.5 hours post oral dosing, printed as plain ratio, read-out: brain-blood concentration ratio) was 5.08, the concentration at 0.5 h ([1]; plasma, read-out: concentration in plamsa) was 515 ng/mL and the IC50 (JAK1-JH2) was greater than 5000 nM. It also gave an IC50 (TYK2-JH2) of less than 5 nM, a Vd ([2]; male, SD, rat, rat plasma, intravenous injection 2 mg/kg, read-out: Vss) of 1.28 L/kg and a Vd ([2]; male, SD, rat, rat plasma, intravenous injection 2 mg/kg, read-out: Vz) of 1.33 L/kg. The AUC(0-inf) [2, 4] was 2030 ng·h/mL, the AUC(0-t) [2, 4] was 2020 ng·h/mL and the C0 [2, 4] was 2260 ng/mL. It also gave an MRT [2, 4] of 1.28 h, a clearance [2, 4] of 16.7 mL/min/kg and a half-life [2, 4] of 0.93 h. For the same compound, the AUC(0-inf) [2, 5] was 5780 ng·h/mL, the AUC(0-t) [2, 5] was 5770 ng·h/mL and the Cmax [2, 5] was 2460 ng/mL. It also gave an MRT [2, 5] of 1.97 h, a Tmax [2, 5] of 0.5 h and a half-life [2, 5] of 2.46 h. For the same compound, the Bioavialibility ([2]; rat, oral 10 mg/kg vs intravenous 2 mg/kg) was 57.1% and the “oral drug exposure (in words)” value ([2]; rat, single oral gavage 10 mg/kg) was “much better than that of the control compounds A and B”.

Work on CNc1cc2nn3c(cnc13)C(=O)OC[C@H](C)OCc1ccc(OC)c(c1)N2 [Example 3, (6S, E)-3^6-methoxy-6-methyl-1^8-(methylamino)-5,8-dioxa-2-azazo-1(6,3)-imidazo[1,2-b]pyridazine-3(1,3)-benzheterocyclononan-9-one] yielded an IC50 (JAK1-JH2) greater than 5000 nM and an IC50 (TYK2-JH2) of less than 20 nM.

For CNc1cc2nc3c(cnn13)C(=O)OCC(C)OCc1ccc(OC)c(c1)N2 [Example 4, (S, 1^3E,1^4E)-3^6-methoxy-6-methyl-1^7-(methylamino)-5,8-dioxa-2-azazo-1(5,3)-pyrazolo[1,5-a]pyrimidine-3(1,3)-benzheterocyclononan-9-one], the IC50 (JAK1-JH2) was greater than 5000 nM and the IC50 (TYK2-JH2) was less than 20 nM.

CNc1cc2nn3c(cnc13)C(=O)O[C@@H]1CCC[C@@H]1OCc1cc(c3nnn(C)c3c1)N2 [Example 5, (6^1R,6^2R,E)-3^1-methyl-1^8-(methylamino)-3^1H-5,7-dioxa-2-azazo-1(6,3)-imidazo[1,2-b]pyridazine-3(4,6)-benzo[d][1,2,3]triazole-6(1,2)-cyclopentane cyclooctafuran-8-one] gave a Kp at 5 min [1, 3] of 1.21, an IC50 (JAK1-JH2) greater than 5000 nM and an IC50 (TYK2-JH2) of less than 5 nM.

For CNc1cc2nc3c(cnn13)C(=O)O[C@@H]1CCC[C@H]1OCc1cc(c3nnn(C)c3c1)N2 [Example 6, (1^3E,1^4E,6^1R,6^2R)-3^1-methyl-1^7-(methylamino)-3^1H-5,7-dioxa-2-azazo-1(5,3)-pyrazolo[1,5-a]pyrimidine-3(4,6)-benzo[d][1,2,3]triazole-6(1,2)-cyclopentane cyclooctafuran-8-one], the Kp at 5 min [1, 3] was 0.322 and the IC50 (TYK2-JH2) was less than 10 nM.

With CNc1cc2nn3c(cnc13)C(=O)O[C@H](C)COCc1cc(c(=O)n(C)c1)N2 [Example 7, (1^5E,3^3E,7R)-3^1,7-dimethyl-1^8-(methylamino)-3^1,3^2-dihydro-5,8-dioxa-2-azazo-1(6,3)-imidazo[1,2-b]pyridazine-3(3,5)-pyridine heterocyclononane-3^2,9-dione] the IC50 (JAK1-JH2) was greater than 5000 nM and the IC50 (TYK2-JH2) was less than 5 nM.

CNc1cc2nc3c(cnn13)C(=O)O[C@H](C)COCc1cc(c(=O)n(C)c1)N2 [Example 8, (R,1^3E,1^4E,3^3E)-3^1,7-dimethyl-1^7-(methylamino)-3^1,3^2-dihydro-5,8-dioxa-2-azazo-1(5, 3)-pyrazolo[1,5-a]pyrimidine-3 (3,5)-pyridine heterocyclononane-3^2,9-dione] gave an IC50 (JAK1-JH2) greater than 5000 nM and an IC50 (TYK2-JH2) of less than 5 nM.

In the case of CNc1cc2nn3c(cnc13)C(=O)N[C@@H]1CCC[C@H]1OCc1cc(c3nnn(C)c3c1)N2 [control compound A, reference compound], the “brain penetration (in words)” value [1] is reported as “very low brain penetration”, the Kp at 5 min [1, 3] is reported as 0.0879 and the IC50 (JAK1-JH2) is reported as greater than 1000 nM. The IC50 (TYK2-JH2) was less than 5 nM, the AUC(0-inf) [2, 5] was 735 ng·h/mL and the AUC(0-t) [2, 5] was 592 ng·h/mL. The Cmax [2, 5] was 126 ng/mL, the MRT [2, 5] was 3.16 h and the Tmax [2, 5] was 1.83 h. It also gave a half-life [2, 5] of 3.07 h.

In the case of CNc1cc2nc3c(cnn13)C(=O)N[C@H](C)COCc1ccc(OC)c(c1)N2 [control compound B, reference compound], the Kp at 5 min [1, 3] is reported as 0.228, the AUC(0-inf) [2, 5] is reported as 332 ng·h/mL and the AUC(0-t) [2, 5] is reported as 327 ng·h/mL. It also gave a Cmax [2, 5] of 192 ng/mL, an MRT [2, 5] of 1.63 h and a Tmax [2, 5] of 0.5 h. It also gave a half-life [2, 5] of 1.08 h.
